According to patent US11415579B2, “Assay for measuring a rate of reaction between a target and a ligand candidate” (Imperial College Innovations Ltd., priority 2016, dated 2022):

How the values were obtained:
[1] = Kinetic thiol consumption assay with model thiol glutathione; format: physicochemical; parameters: Rate constant with glutathione (k(GSH)): unit not given here; settings: for Rate constant with glutathione (k(GSH)): 500 μM ligand, 5 μM thiol, phosphate buffer pH 8; for Rate constant with Glutathione: Protein: Glutathione, cysteine position NA, in h-1
Summary of the method: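 GSH 5 μM, degassed phosphate buffer pH 8, TCEP beads 2% v/v; acrylamide added; RT, 1 h; fluorescence ex/em 380/470 nm; normalized to DMSO/thiol control; k from first-order exponential decay fit.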

[2] = target: T1, human cyclin-dependent kinase 2 (Cdk2) (Homo sapiens, UniProt P24941); assay: Kinetic thiol consumption assay with wild type Cdk2 (C177); format: binding; parameters: key to Rate enhancement, Cdk2 WT: k(Cdk2) divided by k(model thiol); Rate constant with Cdk2 (k(Cdk2)): unit not given here; settings: for Rate constant with Cdk2 (k(Cdk2)): 500 μM ligand, 5 μM thiol, phosphate buffer pH 8; for Rate enhancement, Cdk2 WT: no additional mutations; for Rate constant with Cdk2 WT: Protein: Cdk2, cysteine position WT, in h^-1; for k(Cdk2)/k(Cdk2_mut) rate enhancement: model thiol Cdk2[C177A, F80C, K278C]; for k(Cdk2)/k(GSH) rate enhancement: model thiol glutathione
T1 construct: poly-histidine; made in house; host or cells: E. coli
Summary of the method: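 His-tagged human Cdk2 (single surface cysteine C177), expressed in E. coli, or a model thiol at 5 μM in degassed phosphate buffer pH 8 was pre-treated with immobilized TCEP beads (2% v/v) before acrylamide addition. Fluorescence (ex/em 380/470 nm) was read after 1 h at room temperature, normalized to DMSO/thiol-only control and plotted versus time.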

Cdk2[C177A, F80C, K278C] = target: T2, Cdk2[C177A, F80C, K278C] (Homo sapiens, UniProt P24941, C177A/F80C/K278C); assay: Kinetic thiol consumption assay with mutant Cdk2 as model thiol; format: binding; parameters: unit not given here; settings: 500 μM ligand, 5 μM thiol, phosphate buffer pH 8
T2 construct: poly-histidine; made in house; host or cells: E. coli
Summary of the method: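 Model thiol: His-tagged human Cdk2 C177A/F80C/K278C (two engineered surface cysteines), E. coli-expressed, 5 μM in degassed phosphate buffer pH 8 with immobilized TCEP beads (2% v/v). Fluorescence (ex/em 380/470 nm) followed over time at room temperature, normalized to DMSO/thiol control. First-order decay fit gives rate constants.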

Cdk2(C177A, F80C) = target: T3, Cdk2(C177A, F80C) (Homo sapiens, UniProt P24941, C177A/F80C); assay: Kinetic thiol consumption assay with Cdk2 mutant F80C, incl. kobs versus concentration (Kd, k2); format: binding; parameters: key to Rate enhancement, Cdk2 F80C: Cdk2 rate constant divided by model-thiol rate constant; settings: additional mutation C177A; for Rate constant with Cdk2 F80C: Protein: Cdk2, cysteine position F80C, in h^-1
T3 construct: poly-histidine; made in house; host or cells: E. coli
Summary of the method: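 His-tagged Cdk2(C177A/F80C) from E. coli or model thiol, 5 μM in degassed phosphate buffer pH 8 with TCEP beads, reacted with acrylamide ligands; fluorescence (ex/em 380/470 nm) normalized to DMSO control and fitted to first-order decay for kobs. Kd and k2 obtained from hyperbolic fit of kobs versus ligand concentration.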

Cdk2(H71C) (C177A) = target: T4, Cdk2(H71C) (C177A) (Homo sapiens, UniProt P24941, C177A/H71C); assay: Kinetic thiol consumption assay with Cdk2 mutant H71C; format: binding; parameters: key to Rate enhancement, Cdk2 H71C: rate constant with Cdk2 ÷ rate constant with model thiol (fold); settings: additional mutation C177A; for Rate constant with Cdk2 H71C: Protein: Cdk2, cysteine position H71C, in h^-1
T4 construct: poly-histidine; made in house; host or cells: E. coli
Summary of the method: (§1)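 His-tagged single-surface-cysteine Cdk2 mutants (C177A background) from E. coli, 5 μM in degassed phosphate buffer pH 8, pre-treated with immobilized TCEP beads. Fluorescence (ex/em 380/470 nm) read after 1 h at room temperature, normalized to DMSO/thiol-only control; first-order decay fits gave rate constants, divided by model-thiol rate for rate enhancement.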

Cdk2(S276C) (C177A) = target: T5, Cdk2(S276C) (C177A) (Homo sapiens, UniProt P24941, C177A/S276C); assay: Kinetic thiol consumption assay with Cdk2 mutant S276C; format: binding; parameters: key to Rate enhancement, Cdk2 S276C: rate constant with Cdk2 ÷ rate constant with model thiol (fold); settings: additional mutation C177A; for Rate constant with Cdk2 S276C: Protein: Cdk2, cysteine position S276C, in h^-1
T5 construct: poly-histidine; made in house; host or cells: E. coli
Summary of the method: as §1

Cdk2(N272C) (C177A) = target: T6, Cdk2(N272C) (C177A) (Homo sapiens, UniProt P24941, C177A/N272C); assay: Kinetic thiol consumption assay with Cdk2 mutant N272C; format: binding; parameters: key to Rate enhancement, Cdk2 N272: rate constant with Cdk2 ÷ rate constant with model thiol (fold); settings: for Rate enhancement, Cdk2 N272: Cdk2 N272, additional mutation C177A; for Rate constant with Cdk2 N272C: Protein: Cdk2, cysteine position N272C, additional mutation C177A, in h^-1
T6 construct: poly-histidine; made in house; host or cells: E. coli
Summary of the method: as §1

Cdk2(T182C) (C177A) = target: T7, Cdk2(T182C) (C177A) (Homo sapiens, UniProt P24941, C177A/T182C); assay: Kinetic thiol consumption assay with Cdk2 mutant T182C; format: binding; parameters: key to Rate enhancement, Cdk2 T182C: rate constant with Cdk2 ÷ rate constant with model thiol (fold); settings: additional mutation C177A; for Rate constant with Cdk2 T182C: Protein: Cdk2, cysteine position T182C, in h^-1
T7 construct: poly-histidine; made in house; host or cells: E. coli
Summary of the method: as §1

Cdk2(R122C) (C177A) = target: T8, Cdk2(R122C) (C177A) (Homo sapiens, UniProt P24941, C177A/R122C); assay: Kinetic thiol consumption assay with Cdk2 mutant R122C; format: binding; parameters: key to Rate enhancement, Cdk2 R122C: rate constant with Cdk2 ÷ rate constant with model thiol (fold); settings: additional mutation C177A; for Rate constant with Cdk2 R122C: Protein: Cdk2, cysteine position R122C, in h-1
T8 construct: poly-histidine; made in house; host or cells: E. coli
Summary of the method: as §1

Cdk2(S181C) (C177A) = target: T9, Cdk2(S181C) (C177A) (Homo sapiens, UniProt P24941, C177A/S181C); assay: Kinetic thiol consumption assay with Cdk2 mutant S181C; format: binding; parameters: key to Rate enhancement, Cdk2 S181C: rate constant with Cdk2 ÷ rate constant with model thiol (fold); settings: additional mutation C177A; for Rate constant with Cdk2 S181C: Protein: Cdk2, cysteine position S181C, in h^-1
T9 construct: poly-histidine; made in house; host or cells: E. coli
Summary of the method: as §1

Compound | Rate constant with glutathione (k(GSH)) [1] | Rate constant with Glutathione [1] | Rate constant with Cdk2 (k(Cdk2)) [2] | Rate enhancement, Cdk2 WT [2] | Rate constant with Cdk2 WT [2] | k(Cdk2)/k(Cdk2_mut) rate enhancement [2] | k(Cdk2)/k(GSH) rate enhancement [2] | Rate constant with Cdk2[C177A, F80C, K278C] (k(Cdk2_mut)) (Cdk2[C177A, F80C, K278C]) | Rate enhancement, Cdk2 F80C (Cdk2(C177A, F80C)) | Rate enhancement, Cdk2 H71C (Cdk2(H71C) (C177A)) | Rate enhancement, Cdk2 S276C (Cdk2(S276C) (C177A)) | Rate constant with Cdk2 S276C (Cdk2(S276C) (C177A)) | Rate enhancement, Cdk2 N272 (Cdk2(N272C) (C177A)) | Rate constant with Cdk2 N272C (Cdk2(N272C) (C177A)) | Rate enhancement, Cdk2 T182C (Cdk2(T182C) (C177A)) | Rate constant with Cdk2 T182C (Cdk2(T182C) (C177A)) | Rate enhancement, Cdk2 R122C (Cdk2(R122C) (C177A)) | Rate constant with Cdk2 R122C (Cdk2(R122C) (C177A)) | Rate enhancement, Cdk2 S181C (Cdk2(S181C) (C177A)) | Rate constant with Cdk2 S181C (Cdk2(S181C) (C177A)) | other results
C=CC(=O)NC1C2CC3CC(C2)CC1C3 (centres unmarked) [CA-055] | 0.00243 | 0.002381 | 0.0007 | 0.4066 | 0.0009681 | 0.6937 | 0.2881 | 0.00101 | 0 | 0.4859 | 0.6972 | 0.00166 | 4.591 | 0.01093 | 0.2621 | 0.0006241 | 0.4288 | 0.001021 | 1.073 | 0.002556 | Rate constant with Cdk2 H71C (Cdk2(H71C) (C177A)): 0.001157
C=CC(=O)N1CCc2sccc2C1c1cccs1 (centres unmarked) [CA-056] | 0.0174 | 0.01742 | 0.02004 | 1.15 | 0.02004 | 0.1472 | 1.152 | 0.1361 | 4.984 | 1.254 | 1.776 | 0.03094 | 1.548 | 0.02696 | 18.35 | 0.3197 | 0.7819 | 0.01362 | 2.069 | 0.03604 | Rate constant with Cdk2 F80C (Cdk2(C177A, F80C)): 0.08682; Rate constant with Cdk2 H71C (Cdk2(H71C) (C177A)): 0.02185
C=CC(=O)Nc1cccc(-c2nnnn2C2CC2)c1 [CA-057] | 0.02585 | 0.02651 | 0.0716 | 2.701 | 0.0716 | 0.7607 | 2.77 | 0.09413 | 2.139 | 1.636 | 1.606 | 0.04258 | 2.885 | 0.07649 | 18.51 | 0.4908 | 1.176 | 0.03118 | 1.069 | 0.02834 | Rate constant with Cdk2 F80C (Cdk2(C177A, F80C)): 0.05671; Rate constant with Cdk2 H71C (Cdk2(H71C) (C177A)): 0.04338
C=CC(=O)NCCCN(C(=O)C1CCC1)C1CC1 [CA-060] | 0.00283 | 0.005138 | 0.00226 | 0.7143 | 0.00367 | 1.013 | 0.7988 | 0.00223 | – | 0 | 1.112 | 0.005711 | 3.677 | 0.01889 | 1.619 | 0.00832 | 0.4675 | 0.002402 | 0.7812 | 0.004014 | Rate constant with Cdk2 F80C (Cdk2(C177A, F80C)): ~0.0004944
C=CC(=O)N1CC(Cc2ccccc2)C1 [CA-072] | 0.01236 | 0.02221 | 0.0241 | 1.085 | 0.0241 | 5.016 | 1.95 | 0.00481 | 0.2566 | 16.46 | 4.036 | 0.08965 | 9.388 | 0.2085 | 6.718 | 0.1492 | 0.3503 | 0.00778 | 2.167 | 0.04813 | Rate constant with Cdk2 F80C (Cdk2(C177A, F80C)): 0.0057; Rate constant with Cdk2 H71C (Cdk2(H71C) (C177A)): 0.3655
